For experiment [1], the target named is T1, Acetylcholinesterase from Electrophorus electricus (electric eel) Type VI-S (Electrophorus electricus, UniProt O42275).
T1 construct: purchased Sigma-Aldrich C3389-500UN
Format: biochemical. Conditions: n=3, average value.

Experiment [2] deals with T1, Acetylcholinesterase from Electrophorus electricus (electric eel) Type VI-S. Kind of experiment: biochemical. The method, then:
2. Reagents 2.1 AchE Enzyme • Name: Acetylcholinesterase from Electrophorus electricus (electric eel) Type VI-S • Serial number: C3389-500UN • Obtained from: Sigma-Aldrich • Storage condition: Frozen (−20° C.) 2.2 AchE Activity Measurement Kit • Name: Acetylcholinesterase Activity Assay Kit • Serial number: MAK119 • Obtained from: Sigma-Aldrich • Storage condition: Room temperature 2.3 Solvent • Name: UltraPure 1M Tris-HCL pH 7.5 • Serial number: 15567-027 • Obtained from: Invitrogen • Storage condition: Refrigerated (4° C.) 2.4 Water
AchE enzyme (lyophilized powder) 2 mg (500 units) was dissolved in 2 mL of Tris-HCL Buffer pH 7.5 prepared to a concentration of 20 mM. This was then further diluted 30-folds with ultrapure water to prepare to a concentration of 33.3 μg/mL.
Two mg of the reagent included in the AchE activity measurement kit was weighed, dissolved in 200 mL of the assay buffer, and the working solution was obtained.
Measurement was carried out according to the following order. • 1) AchE enzyme solution (33.3 μg/mL) is mixed with test substance 1 solution (5 mg/mL) and ultrapure water according to the following Table 1.
(§1) • 2) The mixture is allowed to react in a thermobath at 37° C. for 10 minutes. • 3) 200 μL each of ultrapure water is added to 4 wells (n=4) of a 96-well microplate (blank wells.) • 4) 200 μL each of the calibrator included in the AchE activity measurement kit is added to 4 wells (n=4) different from those in Procedure 3) (calibrator wells.) • 5) 190 μL each of the working solution is added to yet another 24 wells (6 samples×4) (sample wells.) • 6) To the wells with the working solution added, 10μ each of post-reaction solutions No. 1-6 obtained in Procedure 2) is added to 4 wells (n=4) each. • 7) The plates are lightly tapped to allow mixing, reacted for 2 minutes at room temperature, and then absorbance at 412 nm is read with a microplate reader. • 8) This is allowed to react for another 8 minutes at room temperature (a total of 10 minutes), and then the absorbance at 412 nm is measured.
Measurement was carried out according to the following order. • 1) AchE enzyme solution (33.3 μg/mL) is mixed with test substance 2 solution (800 μg/mL) and ultrapure water according to the following Table 2.
as §1, with “measured. 6. Data Processing” for “measured.”
Employing the absorbance values obtained, the AchE activity (units/mL) was calculated by the formula below, and the average value and standard deviation of the AchE activity (units/mL) for each test substance at each concentration was calculated.
[formula] • (A412) final: Absorbance value at 412 nm after 10 minutes of reaction • (A412) initial Absorbance value at 412 nm after 2 minutes of reaction • n: Dilution coefficient (n=120) 0.2: Coefficient by Calibrator
Moreover, employing the AchE activity for the test substance at each concentration, One phase exponential decay curve was obtained by GraphPad Prism, and the IC50 value (mg/mL) was calculated.

Where two headings read alike, the source gives them in different places.

T1 sequence (O42275 24-633): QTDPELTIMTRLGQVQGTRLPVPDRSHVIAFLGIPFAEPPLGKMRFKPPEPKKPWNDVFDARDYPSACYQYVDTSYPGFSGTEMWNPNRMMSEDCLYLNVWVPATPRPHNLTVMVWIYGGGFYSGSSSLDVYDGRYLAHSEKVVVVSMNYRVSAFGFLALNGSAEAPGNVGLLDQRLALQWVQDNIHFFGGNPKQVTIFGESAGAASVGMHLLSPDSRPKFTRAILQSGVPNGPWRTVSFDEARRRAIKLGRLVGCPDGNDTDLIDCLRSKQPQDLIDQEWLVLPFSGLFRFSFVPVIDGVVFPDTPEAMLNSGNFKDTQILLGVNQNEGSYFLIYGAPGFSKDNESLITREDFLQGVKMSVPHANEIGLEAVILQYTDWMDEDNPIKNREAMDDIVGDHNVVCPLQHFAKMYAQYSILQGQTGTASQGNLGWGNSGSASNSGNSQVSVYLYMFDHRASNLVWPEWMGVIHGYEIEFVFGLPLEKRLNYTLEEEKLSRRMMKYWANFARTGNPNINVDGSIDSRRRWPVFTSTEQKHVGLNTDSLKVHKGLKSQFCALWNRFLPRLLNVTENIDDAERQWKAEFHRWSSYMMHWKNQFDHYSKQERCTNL

By IC50 is commonly meant the point on the concentration scale where inhibition reaches its midpoint. In the case of `COc1ccccc1O` [GUA, Guaiacol], the AchE activity is 24.89 units/mL in experiment [1] (GUA concentration 0.2 mM); 24.64 units/mL in experiment [1] (GUA concentration 0.7 mM); 25.09 units/mL in experiment [1] (GUA concentration 2 mM); 20.54 units/mL in experiment [1] (GUA concentration 7 mM); 10.56 units/mL in experiment [1] (GUA concentration 20 mM). Also, the IC50 in experiment [2] (nonlinear regression curve of AchE activity at each concentration (GraphPad Prism), read-out: IC50 value (converted)) was 137 mM; in experiment [2] (regression curve by GraphPad Prism, Example 2, read-out: IC50), 17 mM. Also, in experiment [2] (read-out: Inhibitory rate), the inhibition at 200 µM was 3%. In addition, the inhibition at 700 µM in experiment [2] (read-out: Inhibitory rate) was determined as 3.9%. For the same compound, the inhibition at 2000 µM in experiment [2] (read-out: Inhibitory rate) came out at 2.2%. In addition, in experiment [2] (read-out: Inhibitory rate), the inhibition at 7000 µM came out at 19.9%. For the same compound, in experiment [2] (read-out: Inhibitory rate), the inhibition at 20000 µM is 58.8%.

For the origin of these results see US12702148B2, “Acetylcholinesterase inhibitor” (Taiko Pharmaceutical Co., Ltd., priority 2019, dated 2026).
